Where two headings read alike, the source gives them in different places.
Assays:
HCT-15 cells = experiment: Cytotoxicity in panel of MDR cell lines, HCT-15 (72 h and 144 h); type: cell-based, human; conditions: for IC50: Homo sapiens
In short: (§1)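 MDR lines (HCT-15; doxorubicin-resistant H69AR; mitoxantrone-resistant MES-SA/MX2 and HL60/MX2) seeded at 1000 cells/well in normal growth media, treated with 1:3 serially diluted payloads for 72 h and 144 h. Viability by CellTiter-Glo ATP luminescence; IC50 from four-parameter logistic fit of 10-point curves.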

T47D cells = experiment: Cell-based killing assay of payloads (CellTiter-Glo), T47D cells; set-up: species or system human; conditions: 5-day incubation; for IC50: Homo sapiens, T47D, 120 h; for T47D % Kill: at maximum concentration tested
Method: (§2) To test the ability of the disclosed tubulysin payloads to kill human cell lines, an in vitro cytotoxicity assay was performed. In vitro cytotoxicity of the disclosed payloads, as well as reference compounds, were evaluated using the CellTiter-Glo Assay Kit (Promega, Cat #G7573), in which the quantity of ATP present is used to determine the number of viable cells in culture. For the assay, C4-2, HEK293, or T47D cells were seeded at 4000 cells/well on Nunclon white 96-well plates in complete growth medium (DME high glucose:Ham's F12 at 4:1, 10% FBS, 100 units/ml Penicillin, 100 ug/ml streptomycin, 53 ug/ml glutatmine, 10 ug/ml insulin, 220 ng/ml biotin, 12.5 pg/ml T3, 12.5 ug/ml Adenine, 4 ug/ml transferrin for C42 cells; DME high glucose, 10% FBS, 100 units/ml Penicillin, 100 ug/ml streptomycin, 53 ug/ml glutatmine for HEK293; RPMI, 10% FBS, 100 units/ml Penicillin, 100 ug/ml streptomycin, 53 ug/ml glutatmine, 10 ug/ml insulin, 10 mM HEPEs, 200 nM Sodium Pyruvate for T47D cells) and grown overnight at 37° C. in 5% CO2. For cell viability curves, 1:3 serially diluted payloads were added to the cells at final concentrations ranging from 100 nM to […], including a no treatment control group, and were then incubated for 5 days. After the 5-day incubation, cells were incubated at room temperature with 100 μL of CellTiter-Glo reagents for 10 minutes. Relative luminescence units (RLU) were determined on a Victor plate reader (PerkinElmer). The IC50 values were determined from a four-parameter logistic equation over a 10-point response curve (GraphPad Prism). All IC50 values are expressed in molar (M) concentration. The percent cell killing (% kill) at the maximum concentration tested was estimated from the following formula (100−% viable cells). Averages±standard deviation (SD) are included where replicate experiments were performed.

HL60/MX2 cells = experiment: Cytotoxicity in panel of MDR cell lines, HL60/MX2 (72 h and 144 h); type: cell-based, human; conditions: for IC50: Homo sapiens
In short: as §1

C4-2 cells = experiment: Cell-based killing assay of payloads (CellTiter-Glo), C4-2 cells; set-up: species or system human; conditions: 5-day incubation; for IC50: Homo sapiens, C4-2, 120 h, average ± SD where replicates; for C4-2 % Kill: at maximum concentration tested (100 − % viable cells)
In short: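 Cells plated at 4000/well in line-specific complete medium, grown overnight, then exposed to 1:3 serial dilutions of payload (100 nM to […]) for 5 days. ATP-based CellTiter-Glo luminescence read; IC50 from four-parameter logistic 10-point fit, and % kill at top concentration as 100 − % viable.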

HEK293 cells = experiment: Cell-based killing assay of payloads (CellTiter-Glo), HEK293 cells; set-up: species or system human; conditions: 5-day incubation; for IC50: Homo sapiens, HEK293, 120 h; for HEK293 % Kill: at maximum concentration tested
Method: as §2

HCT15 cells = experiment: cells; type: cell-based, human; conditions: HCT15 cells; for HCT-15 + verapamil % Kill / HCT-15 % Kill: maximum % cell killing
In short: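 HCT15 colorectal carcinoma cells, 1000 per well in RPMI/10% FBS, with or without 5 ug/mL verapamil, exposed to 1:3 serially diluted payloads for 5 days at 37 °C. Viability measured by CellTiter-Glo ATP luminescence; IC50 from four-parameter logistic fit of a 10-point curve, % kill at top concentration.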

H69AR cells = experiment: Cytotoxicity in panel of MDR cell lines, H69AR (72 h and 144 h); type: cell-based, human; conditions: for IC50: Homo sapiens
In short: as §1

MES-SA/MX2 cells = experiment: Cytotoxicity in panel of MDR cell lines, MES-SA/MX2 (72 h and 144 h); type: cell-based, human; conditions: for IC50: Homo sapiens
In short: as §1

[1] = 72 h incubation, read-out: HCT-15 IC50 72 h
[2] = 144 h incubation, read-out: HCT-15 IC50 144 h
[3] = 72 h incubation, read-out: HL60/MX2 IC50 72 h
[4] = 144 h incubation, read-out: HL60/MX2 IC50 144 h
[5] = with 5 ug/mL Verapamil, read-out: HCT-15 + verapamil IC50
[6] = Homo sapiens, HCT-15, without Verapamil, read-out: HCT-15 IC50
[7] = 72 h incubation, read-out: H69AR IC50 72 h
[8] = 144 h incubation, read-out: H69AR IC50 144 h
[9] = 72 h incubation, read-out: MES-SA/MX2 IC50 72 h
[10] = 144 h incubation, read-out: MES-SA/MX2 IC50 144 h

Compound	HCT-15 % Kill 72 h (HCT-15 cells; 72 h incubation)	HCT-15 % Kill 144 h (HCT-15 cells; 144 h incubation)	IC50 (HCT-15 cells; [1])	IC50 (HCT-15 cells; [2])	IC50 (T47D cells)	T47D % Kill (T47D cells)	HL60/MX2 % Kill 72 h (HL60/MX2 cells; 72 h incubation)	HL60/MX2 % Kill 144 h (HL60/MX2 cells; 144 h incubation)	IC50 (HL60/MX2 cells; [3])	IC50 (HL60/MX2 cells; [4])	IC50 (C4-2 cells)	C4-2 % Kill (C4-2 cells)	IC50 (HEK293 cells)	HEK293 % Kill (HEK293 cells)	HCT-15 + verapamil % Kill (HCT15 cells; with 5 ug/mL Verapamil)	IC50 (HCT15 cells; [5])	HCT-15 % Kill (HCT15 cells; without Verapamil)	IC50 (HCT15 cells; [6])	H69AR % Kill 72 h (H69AR cells; 72 h incubation)	H69AR % Kill 144 h (H69AR cells; 144 h incubation)	other results
C#CCCCCN(C(=O)[C@@H](NC(=O)[C@H]1CCCCN1C)[C@@H](C)CC)[C@H](C[C@@H](OC(C)=O)c1nc(C(=O)N[C@@H](Cc2ccc(F)cc2)CC(C)(C)C(=O)O)cs1)C(C)C [IVc, (4S)-4-({2-[(1R,3R)-1-(Acetyloxy)-3-[(2S,3S)—N-(hex-5-yn-1-yl)-3-methyl-2-{[(2R)-1-methylpiperidin-2-yl]formamido}pentanamido]-4-methylpentyl]-1,3-thiazol-4-yl}formamido)-5-(4-fluorophenyl)-2,2-dimethylpentanoic acid]	97.3%	99.8%	125 pM	165 pM	205 pM	81.4%	97.7%	99.9%	< 15 pM	< 15 pM	92.4 pM	92.2%	307 pM	84.8%	98%	113 pM	99.2%	302 pM	96.6%	99.3%	IC50 (H69AR cells; [7]): 360 pM; IC50 (H69AR cells; [8]): 725 pM; MES-SA/MX2 % Kill 72 h (MES-SA/MX2 cells; 72 h incubation): 98.2%; MES-SA/MX2 % Kill 144 h (MES-SA/MX2 cells; 144 h incubation): 99.9%; IC50 (MES-SA/MX2 cells; [9]): 374 pM; IC50 (MES-SA/MX2 cells; [10]): 604 pM
C#CCCCON(C(=O)[C@@H](NC(=O)[C@H]1CCCCN1C)[C@@H](C)CC)[C@H](C[C@@H](OC(C)=O)c1nc(C(=O)N[C@@H](Cc2ccc(O)cc2)C[C@H](C)C(=O)O)cs1)C(C)C [Vg, (2S,4R)-4-({2-[(1R,3R)-1-(Acetyloxy)-4-methyl-3-[(2S,3S)-3-methyl-2-{[(2R)-1-methylpiperidin-2-yl]formamido}-N-(pent-4-yn-1-yloxy)pentanamido]pentyl]-1,3-thiazol-4-yl}formamido)-5-(4-hydroxyphenyl)-2-methylpentanoic acid]	97.6%	99.5%	680 pM	916 pM	535 pM	65.2%	98%	99.9%	131 pM	61 pM	369 pM	93.2%	700 pM	86.4%	98%	237 pM	94.9%	530 pM	94.2%	98.4%	IC50 (H69AR cells; [7]): 2130 pM; IC50 (H69AR cells; [8]): 2720 pM; MES-SA/MX2 % Kill 72 h (MES-SA/MX2 cells; 72 h incubation): 98%; MES-SA/MX2 % Kill 144 h (MES-SA/MX2 cells; 144 h incubation): 99.8%; IC50 (MES-SA/MX2 cells; [9]): 3540 pM; IC50 (MES-SA/MX2 cells; [10]): 5300 pM
C#CCCCCN(C(=O)[C@@H](NC(=O)[C@H]1CCCCN1C)[C@@H](C)CC)[C@H](C[C@@H](OC(C)=O)c1nc(C(=O)N[C@@H](Cc2ccc(N)cc2)C[C@H](C)C(=O)O)cs1)C(C)C [IVg, (2S,4R)-4-({2-[(1R,3R)-1-(Acetyloxy)-3-[(2S,3S)—N-(hex-5-yn-1-yl)-3-methyl-2-{[(2R)-1-methylpiperidin-2-yl]formamido}pentanamido]-4-methylpentyl]-1,3-thiazol-4-yl}formamido)-5-(4-aminophenyl)-2-methylpentanoic acid]	97.6%	99.5%	170 pM	223 pM	413 pM	62.9%	98.5%	100%	124 pM	< 15 pM	136 pM	91.7%	539 pM	86.5%	97.5%	328 pM	97.1%	460 pM	95.7%	99.2%	IC50 (H69AR cells; [7]): 553 pM; IC50 (H69AR cells; [8]): 571 pM; MES-SA/MX2 % Kill 72 h (MES-SA/MX2 cells; 72 h incubation): 99.6%; MES-SA/MX2 % Kill 144 h (MES-SA/MX2 cells; 144 h incubation): 100%; IC50 (MES-SA/MX2 cells; [9]): 838 pM; IC50 (MES-SA/MX2 cells; [10]): 999 pM
C#CCCCCN(C(=O)[C@@H](NC(=O)[C@H]1CCCCN1C)[C@@H](C)CC)[C@H](C[C@@H](OC(C)=O)c1nc(C(=O)N[C@@H](Cc2ccc(O)cc2)C[C@H](C)C(=O)O)cs1)C(C)C [IVf, (2S,4R)-4-({2-[(1R,3R)-1-(Acetyloxy)-3-[(2S,3S)—N-(hex-5-yn-1-yl)-3-methyl-2-{[(2R)-1-methylpiperidin-2-yl]formamido}pentanamido]-4-methylpentyl]-1,3-thiazol-4-yl}formamido)-5-(4-hydroxyphenyl)-2-methylpentanoic acid]	96.9%	99.8%	419 pM	396 pM	782 pM	67.1%	97.2%	100%	222 pM	< 15 pM	229 pM	93.8%	1640 pM	86.0%	97.7%	686 pM	96.4%	554 pM	94.6%	98.9%	IC50 (H69AR cells; [7]): 1330 pM; IC50 (H69AR cells; [8]): 1550 pM; MES-SA/MX2 % Kill 72 h (MES-SA/MX2 cells; 72 h incubation): 99.1%; MES-SA/MX2 % Kill 144 h (MES-SA/MX2 cells; 144 h incubation): 99.9%; IC50 (MES-SA/MX2 cells; [9]): 2570 pM; IC50 (MES-SA/MX2 cells; [10]): 3820 pM
C#CCCCCN(C(=O)[C@@H](NC(=O)[C@H]1CCCCN1C)[C@@H](C)CC)[C@H](C[C@@H](OC(C)=O)c1nc(C(=O)N[C@@H](Cc2ccc(F)cc2)C[C@H](C)C(=O)O)cs1)C(C)C [IVe, (2S,4R)-4-({2-[(1R,3R)-1-(Acetyloxy)-3-[(2S,3S)—N-(hex-5-yn-1-yl)-3-methyl-2-{[(2R)-1-methylpiperidin-2-yl]formamido}pentanamido]-4-methylpentyl]-1,3-thiazol-4-yl}formamido)-5-(4-fluorophenyl)-2-methylpentanoic acid]	98.1%	99.6%	133 pM	230 pM	155 pM	67.2%	97.3%	99.9%	< 15 pM	< 15 pM	74.2 pM	91.8%	281 pM	86.7%	97.6%	100 pM	95.8%	295 pM	96.5%	99%	IC50 (H69AR cells; [7]): 585 pM; IC50 (H69AR cells; [8]): 1260 pM; MES-SA/MX2 % Kill 72 h (MES-SA/MX2 cells; 72 h incubation): 99.6%; MES-SA/MX2 % Kill 144 h (MES-SA/MX2 cells; 144 h incubation): 99.9%; IC50 (MES-SA/MX2 cells; [9]): 786 pM; IC50 (MES-SA/MX2 cells; [10]): 2810 pM
